Assay results as given in patent US4767749A, “Ester of (triarylphosphoranylidene)carbamic acid having diuretic and ability to lower plasma renin properties” (American Cyanamid Company, priority 1986, dated 1988).
Where a name gives a salt, the structure may show the parent alone.

Legend:
[1] = system: spontaneously hypertensive rats (SHR); assay: Diuretic activity in spontaneously hypertensive rats; assay type: in vivo, male spontaneously hypertensive rats (Okamoto strain); conditions: 100 mg/kg by gavage with 0.9% sodium chloride loading 25 ml/kg; 0-5 hour urine
Procedure: The diuretic activity of the compounds of this invention was also determined according to the method of Chan, P. S. and Poorvin, D., Sequential method for combined screening antihypertensive and diuretic agents in the same spontaneously hypertensive rat. Clinical and Experimental Hypertension, 1(6), 817-830 (1979).
Male spontaneously hypertensive rats (SHR) of Okamoto strain, 16 weeks old, Taconic Farms Inc. were used in the test. These rats were kept on Purina laboratory chow and tap water ad libitum for 8 weeks before use. One male adult rat (about 300 g) was dosed by gavage with a test compound at 100 mg/kg together with 0.9% sodium chloride loading at 25 ml/kg at zero hour. The test compound was suspended in 3% preboiled starch at 50 mg/ml. The rat was put in a metabolism cage. The 0-5 hour urine was collected and urinary sodium and potassium were determined using a Beckman Astra 4. The effects of representative compounds of the invention according to this test appear in Table III expressed in milliequivalents (mEQ) of urinary sodium and potassium excreted.

plasma renin activity = assay: Inhibition of evoked (drug-induced) elevation of plasma renin activity in conscious rats; assay type: in vivo, male Wistar rats; conditions: Rattus norvegicus, 30 min before provocative treatment; for inhibition in vivo at 25 mg/kg: 25 mg/kg oral
Procedure: Inhibition of evoked increase of plasma renin activity was determined by the following test.
Compounds were tested for their ability to prevent drug-induced elevation of plasma renin activity (PRA) in concious, male Wistar rats (180-200 g, Charles River Lab.). PRA elevation was induced by a combined oral provacative treatment (C) of hydrochlorothiazide (10 mg/kg) and 1-(3-benzoyl-3-mercapto-2-methylpropionyl)-L-proline, acetate (U.S. Pat. No. 4,226,775) (one mg/kg), prepared by compounding in a mortar and pestle with preboiled 3% starch suspension. This treatment provided the daily maximum PRA. The daily minimum PRA was obtained from rats given oral starch suspension (S) alone. The magnitude of drug effect on PRA elevation was ascertained from rats pretreated orally with test agent (D), at the indicated doses, 30 minutes prior to administration of provacative treatment (C). The test agent was also compounded in preboiled 3% starch suspension. The dose volumes for both pretreatment and provocative treatment were 2 ml/kg. One hour after provocative treatment the rats were sacrificed by decapitation and the first 3 seconds of blood collected in two chilled Vacutainer® tubes (Becton-Dickinson, Rutherford, N.J.) containing 40 μl of 150 mg/ml tripotassium EDTA. The plasma fractions, obtained by centrifugation for 20 minutes at 4° C. and 3000 G, were incubated (one of each pair at 37° C., the other at 4° C.) at pH 6.8 in 50 mM phosphate buffer to produce angiotensin I. The incubates contained peptidase inhibitors to prevent angiotensin I degradation and the incubation buffer contained one mg/ml lysozyme (Sigma Grade III) used as an antiabsorbant. The incubates were diluted 20 fold in cold 100 mM Tris buffer (pH adjusted to 7.4 with glacial acetic acid) also containing one mg/ml lysozyme, and then frozen. Diluted incubates were assayed within 3 days for angiotensin I content by radioimmunoassay according to a modification of the method of Haber, et al., J. Clin. Endocrin., 29, 1349-1355 (1969).
PRA is calculated as follows:
PRA(ng AI/hour/ml plasma)=PRA 37° C.-PRA 4° C.
Percent inhibition of PRA elevation is calculated as follows: [formula]

In the case of `CCCOC(=O)N=P(c1ccccc1)(c1ccccc1)c1ccccc1` [(Triphenylphosphoaranylidene)carbamic acid, n-propyl ester], the “Potassium (urinary excretion)” value [1] is reported as 0.48 mEQ/5 Hours, the “Sodium (urinary excretion)” value [1] is reported as 1.37 mEQ/5 Hours and the “Volume (urine)” value [1] is reported as 12.5 mL. The inhibition in vivo at 25 mg/kg (plasma renin activity) was 90%.

With `COC(=O)N=P(c1ccccc1)(c1ccccc1)c1ccccc1` [(Triphenylphosphoranylidene)carbamic acid, methyl ester] the “Potassium (urinary excretion)” value [1] was 0.55 mEQ/5 Hours, the “Sodium (urinary excretion)” value [1] was 2.53 mEQ/5 Hours and the “Volume (urine)” value [1] was 23.3 mL. The inhibition in vivo at 25 mg/kg (plasma renin activity) was 72%.

`O=C(N=P(c1ccccc1)(c1ccccc1)c1ccccc1)OC1CCOC1` (stereo not shown) [(Triphenylphosphoranylidene)carbamic acid, tetrahydro-3-furanyl ester] was tested, and the “Potassium (urinary excretion)” value [1] was 0.70 mEQ/5 Hours, the “Sodium (urinary excretion)” value [1] was 1.10 mEQ/5 Hours and the “Volume (urine)” value [1] was 14.8 mL. For the same molecule, the inhibition in vivo at 25 mg/kg (plasma renin activity) was 69%, the inhibition in vivo at 50 mg/kg (plasma renin activity; 50 mg/kg oral) was 49% and the inhibition in vivo at 100 mg/kg (plasma renin activity; 100 mg/kg oral) was 85%.

With `C=CCOC(=O)N=P(c1ccccc1)(c1ccccc1)c1ccccc1` [(triphenylphosphoranylidene)carbamic acid, 2-propenyl ester] the “Potassium (urinary excretion)” value [1] was 0.67 mEQ/5 Hours, the “Sodium (urinary excretion)” value [1] was 1.17 mEQ/5 Hours and the “Volume (urine)” value [1] was 13.3 mL. The inhibition in vivo at 25 mg/kg (plasma renin activity) was 67%.

`O=C(N=P(c1ccccc1)(c1ccccc1)c1ccccc1)OCc1cccnc1` [(triphenylphosphoranylidene)carbamic acid, 3-pyridinylmethyl ester] was tested, and the “Potassium (urinary excretion)” value [1] was 1.00 mEQ/5 Hours, the “Sodium (urinary excretion)” value [1] was 1.60 mEQ/5 Hours and the “Volume (urine)” value [1] was 14.5 mL. For the same molecule, the inhibition in vivo at 25 mg/kg (plasma renin activity) was 40%.

For `COC(=O)N=P(c1ccccc1)(c1ccccc1)c1c(C)cccc1C` [[(2,6-dimethylphenyl)diphenylphosphoranylidene]carbamic acid, methyl ester], the “Potassium (urinary excretion)” value [1] was 0.84 mEQ/5 Hours, the “Sodium (urinary excretion)” value [1] was 1.33 mEQ/5 Hours and the “Volume (urine)” value [1] was 12.8 mL. It also gave an inhibition in vivo at 25 mg/kg (plasma renin activity) of 68%.

With `Cc1ccccc1P(=NC(=O)OCc1cccnc1)(c1ccccc1)c1ccccc1` [[(2-Methylphenyl)diphenylphosphoranylidene]carbamic acid, 3-pyridinylmethylester] the “Potassium (urinary excretion)” value [1] was 0.62 mEQ/5 Hours, the “Sodium (urinary excretion)” value [1] was 1.48 mEQ/5 Hours and the “Volume (urine)” value [1] was 12.3 mL. It also gave an inhibition in vivo at 25 mg/kg (plasma renin activity) of 75%.

`CCOC(=O)N=P(c1ccccc1)(c1ccccc1)c1ccccc1C` [[(2-Methylphenyl)diphenylphosphoranylidene]carbamic acid, ethyl ester] was tested, and the “Potassium (urinary excretion)” value [1] was 0.78 mEQ/5 Hours, the “Sodium (urinary excretion)” value [1] was 2.68 mEQ/5 Hours and the “Volume (urine)” value [1] was 25.5 mL. It also gave an inhibition in vivo at 25 mg/kg (plasma renin activity) of 92%.

In the case of `Cc1ccccc1P(=NC(=O)OC1CCOC1)(c1ccccc1)c1ccccc1` (stereo not shown) [[(2-Methylphenyl)diphenylphosphoranylidene]carbamic acid, tetrahydro-3-furanyl ester], the “Potassium (urinary excretion)” value [1] is reported as 0.97 mEQ/5 Hours, the “Sodium (urinary excretion)” value [1] is reported as 2.71 mEQ/5 Hours and the “Volume (urine)” value [1] is reported as 22.3 mL. The inhibition in vivo at 25 mg/kg (plasma renin activity) was 93%.

In the case of `CCOC(=O)N=P(c1ccccc1)(c1ccccc1)c1ccccc1Cl` [[(2-chlorophenyl)diphenylphosphoranylidene]carbamic acid, ethyl ester], the “Potassium (urinary excretion)” value [1] is reported as 0.71 mEQ/5 Hours, the “Sodium (urinary excretion)” value [1] is reported as 2.05 mEQ/5 Hours and the “Volume (urine)” value [1] is reported as 19.5 mL. It also gave an inhibition in vivo at 25 mg/kg (plasma renin activity) of 96%.

For `COC(=O)N=P(c1ccccc1)(c1ccccc1)c1ccccc1Cl` [[(2-chlorophenyl)diphenylphosphoranylidene]carbamic acid, methyl ester], the “Potassium (urinary excretion)” value [1] was 0.94 mEQ/5 Hours, the “Sodium (urinary excretion)” value [1] was 2.30 mEQ/5 Hours and the “Volume (urine)” value [1] was 20.0 mL. The inhibition in vivo at 25 mg/kg (plasma renin activity) was 98%.

For `CCOC(=O)N=P(c1ccccc1)(c1ccccc1)c1cccc(Br)c1` [[(3-Bromophenyl)diphenylphosphoranylidene]carbamic acid, ethyl ester], the “Potassium (urinary excretion)” value [1] was 0.78 mEQ/5 Hours, the “Sodium (urinary excretion)” value [1] was 1.16 mEQ/5 Hours and the “Volume (urine)” value [1] was 12.4 mL.

`CCOC(=O)N=P(c1ccccc1)(c1ccccc1)c1cccc(Cl)c1` [[(3-chlorophenyl)diphenylphosphoranylidene]carbamic acid, ethyl ester] was tested, and the “Potassium (urinary excretion)” value [1] was 0.64 mEQ/5 Hours, the “Sodium (urinary excretion)” value [1] was 2.32 mEQ/5 Hours and the “Volume (urine)” value [1] was 23.8 mL.

With `COC(=O)N=P(c1ccccc1)(c1ccccc1)c1cccc(Cl)c1` [[(3-chlorophenyl)diphenylphosphoranylidene]carbamic acid, methyl ester] the “Potassium (urinary excretion)” value [1] was 0.60 mEQ/5 Hours, the “Sodium (urinary excretion)” value [1] was 2.45 mEQ/5 Hours and the “Volume (urine)” value [1] was 23.0 mL.

For `CCOC(=O)N=P(c1ccccc1)(c1ccccc1)c1cccc(C(F)(F)F)c1` [[(3-trifluorophenyl)diphenylphosphoranylidene]carbamic acid, ethyl ester], the “Potassium (urinary excretion)” value [1] was 0.67 mEQ/5 Hours, the “Sodium (urinary excretion)” value [1] was 1.38 mEQ/5 Hours and the “Volume (urine)” value [1] was 13.5 mL.

For `Cc1ccccc1P(=N)(c1ccccc1)c1ccccc1C` [[Bis(2-methylphenyl)phenyl]phosphinimide sulfate], the “Potassium (urinary excretion)” value [1] was 0.88 mEQ/5 Hours, the “Sodium (urinary excretion)” value [1] was 1.44 mEQ/5 Hours and the “Volume (urine)” value [1] was 13.0 mL.

In the case of `COC(=O)N=P(c1ccccc1)(c1ccccc1C)c1ccccc1C` [[Bis(2-methylphenyl)phenylphosphoranylidene]carbamic acid, methyl ester], the “Potassium (urinary excretion)” value [1] is reported as 0.76 mEQ/5 Hours, the “Sodium (urinary excretion)” value [1] is reported as 1.45 mEQ/5 Hours and the “Volume (urine)” value [1] is reported as 13.5 mL.

For `CCOC(=O)N=P(c1ccccc1)(c1ccccc1)c1ccccc1F` [[Diphenyl(2-fluorophenyl)phosphoranylidene]carbamic acid, ethyl ester], the “Potassium (urinary excretion)” value [1] was 0.66 mEQ/5 Hours, the “Sodium (urinary excretion)” value [1] was 2.01 mEQ/5 Hours and the “Volume (urine)” value [1] was 19.8 mL.

With `CCOC(=O)N=P(c1ccccc1)(c1ccccc1)c1ccccc1C(C)C` [[[2-(1-Methylethyl)phenyl]diphenylphosphoranylidene]carbamic acid, ethyl ester] the “Potassium (urinary excretion)” value [1] was 0.83 mEQ/5 Hours, the “Sodium (urinary excretion)” value [1] was 2.08 mEQ/5 Hours and the “Volume (urine)” value [1] was 18.8 mL.

With `CCOC(=O)N=P(c1ccccc1)(c1ccccc1)c1c(C)cccc1C` [[[(2,6-dimethylphenyl)diphenyl]phosphoranylidene]carbamic acid, ethyl ester] the “Potassium (urinary excretion)” value [1] was 0.86 mEQ/5 Hours, the “Sodium (urinary excretion)” value [1] was 1.48 mEQ/5 Hours and the “Volume (urine)” value [1] was 13.0 mL.

For `CCOC(=O)N=P(c1ccccc1)(c1ccccc1)c1cccc(F)c1` [[[(3-fluorophenyl)diphenylphosphoranylidene]carbamic acid, ethyl ester], the “Potassium (urinary excretion)” value [1] was 0.62 mEQ/5 Hours, the “Sodium (urinary excretion)” value [1] was 2.44 mEQ/5 Hours and the “Volume (urine)” value [1] was 24.0 mL.

In the case of `CCOC(=O)N=P(c1ccccc1)(c1cccc(Cl)c1)c1cccc(Cl)c1` [[[bis(3-chlorophenyl)phenyl]phosphoranylidene]carbamic acid, ethyl ester], the “Potassium (urinary excretion)” value [1] is reported as 0.89 mEQ/5 Hours, the “Sodium (urinary excretion)” value [1] is reported as 1.84 mEQ/5 Hours and the “Volume (urine)” value [1] is reported as 18.3 mL.

`CCOC(=O)N=P(c1ccccc1)(c1ccccc1Cl)c1ccccc1Cl` [[bis(2-chlorophenyl)phenylphosphoranylidene]carbamic acid, ethyl ester] was tested, and the “Potassium (urinary excretion)” value [1] was 0.38 mEQ/5 Hours, the “Sodium (urinary excretion)” value [1] was 2.40 mEQ/5 Hours and the “Volume (urine)” value [1] was 22.3 mL.

For `O=C(N=P(c1ccccc1)(c1ccccc1)c1ccccc1C(F)(F)F)OC1CCOC1` (stereo not shown) [[diphenyl[2-(trifluoromethyl)phenyl]phosphoranylidene]carbamic acid, tetrahydro-3-furanyl ester], the “Potassium (urinary excretion)” value [1] was 0.63 mEQ/5 Hours, the “Sodium (urinary excretion)” value [1] was 1.64 mEQ/5 Hours and the “Volume (urine)” value [1] was 16.3 mL.
